Assay results taken from US20230134986A1, “GLUCOSE TRIPTOLIDE CONJUGATES AND USES THEREOF” (The Johns Hopkins University, priority 2020, published 2023).
“Also recorded” adds a separate entry of the source.

Columns and labels:
Assay type in all cases: cell-based, human
PC3 cells = experiment: PC3 proliferation under hypoxia or normoxia ([3H]-thymidine incorporation); settings: for IC50: Homo sapiens, PC-3, 48 h, 48 h post treatment
Method: Proliferation and viability assays. [^3H]-thymidine incorporation. HEK293T cells (10,000 cells/well) were seeded into 96-well plates then cultured in DMEM plus 10% FBS and 1% penicillin/streptomycin at 37° C. with 5% CO2 overnight. Drugs were added at indicated concentrations and incubation was continued for an additional 24 h. For hypoxia, PC3 (5,000 cells/well) were exposed to 1% O2 (Airgas) in a humidified hypoxia chamber (Billups-Rothenberg) in 37° C. for 48 h prior to drug exposure for 48 h. Treated cells were then pulsed using an aliquot of 1 μCi of [^3H]-thymidine (Perkin Elmer) per well for an additional 6 h. Radiolabelled cells were harvested onto a printed Filtermat A glass fiber filter (Perkin Elmer) using a Tomtec Harvester 96 Mach III M. Betaplate Scint (Perkin Elmer) scintillation fluid was added to radiolabelled filters followed by scintillation counting on Microbeta2 LumiJET Microplate Counter (Perkin Elmer).

HepG2 = HepG2 proliferation under hypoxia ([3H]-thymidine incorporation); settings: HepG2, 1% O2, 48 h post treatment
[1] = test system: RPB1 (RNAPII) in PC3 cells; experiment: RPB1 degradation in PC3 cells under hypoxia, immunocytochemistry and western blot; settings: PC3, hypoxic but not normoxic conditions, 3 µM compound 1
Method: Western blot analysis. Whole cell lysates were prepared by adding lysis buffer [4% SDS, 20% glycerol, 10% 2-mercaptoethanol, 0.004% bromophenol blue, 0.125 M Tris-HCl (pH 6.8)] to the cell pellets for 30 minutes in ice followed by centrifugation at 12,000×g for 10 minutes then boiling for 5 minutes. For isolation of cytosolic and mitochondrial fractions of cytochrome C, cell pellets were resuspended in CLAMI buffer (250 mM sucrose, 70 mM KCl, […] digitonin in 1×PBS, protease inhibitor cocktail (1 tablet/10 ml CLAMI buffer)) then incubated on ice for 5 minutes. After centrifugation at 12,000×g for 5 minutes at 4° C., supernatant (cytoplasmic fraction) was collected and the pellet resuspended in lysis buffer as described above. Proteins were then separated by SDS-PAGE and transferred to nitrocellulose membranes (Bio-Rad). […] Antibody-protein complexes were detected using enhanced chemiluminescence (ECL) immunoblotting detection reagent (EMD Millipore).
Immunocytochemistry and cytochemistry. […] Glucose uptake was monitored by incubating cells in 200 μM 2-NBDG (ThermoFisher) for 6 hours prior to fixation. Fluorescence was observed under the Nikon Eclipse TE200 Inverted microscope (Nikon Instruments Inc., Melville, N.Y., USA). […] Rpb1 levels were measured using the MEASURE feature of ImageJ where all the background signals were subtracted from the intergrated density of nuclear Rpb1.

Compound: CC(C)[C@]12O[C@H]1[C@@H]1O[C@]13[C@]1(O[C@H]1C[C@H]1C4=C(CC[C@@]13C)C(=O)OC4)[C@@H]2OC(=O)CCCO[C@@H]1OC(CO)[C@@H](O)C(O)C1O (stereo in doubt) [Compound 1]
- IC50 (PC3 cells; PC3, hypoxic conditions (1% O2)): 81 nM
- IC50 (PC3 cells; PC3, normoxic conditions (20% O2)): 427 nM
- fold enhancement of anti-proliferative effect during hypoxia (PC3 cells; PC3, hypoxia versus normoxia): five-fold
- effect of hypoxia on anti-proliferative effect (HepG2): resistance; also recorded: remains resistant
- onset of RNAPII (RPB1) degradation [1]: observed as early as 6 h
